# According to PMC8467532, “DYRK1A Kinase Inhibitors Promote β-Cell Survival and Insulin Homeostasis” (Cells, 2021):
# Like-named read-outs stand apart in the source and are kept apart here.
# Legend:
# [1] = biological target: T1, DYRK1A (Homo sapiens, UniProt Q13627); experiment: Cook activity assay (ATP regenerative NADH consuming DYRK1A activity assay); assay type: biochemical; conditions: Cook assay
# T1 construct: kinase domain of DYRK1A (126–490) was cloned into pET24a with C-terminal His-tag; His-tag (C); made in house; host or cells: E. coli BL21 (DE3) RIL
# [2] = biological target: T2, DYRK1A kinase domain (Homo sapiens, UniProt Q13627); experiment: MST direct binding assay; conditions: MST direct binding, 20 nM fluorescent-labelled DYRK1A kinase domain
# T2 construct: kinase domain of DYRK1A (126–490) was cloned into pET24a with C-terminal His-tag; made in house; host or cells: E. coli BL21 (DE3) RIL
# [3] = system: NFAT; experiment: NFAT luciferase reporter assay in HEK 293 NFAT cell line expressing DYRK1A; assay type: cell-based; conditions: various concentrations, 30 min, then ionomycin/PMA 5 h
# Description: The Renilla luciferase reporter assay was performed in HEK 293 NFAT cell line, constitutively expressing DYRK1A, NFAT and Renilla luciferase under the control of an NFAT-RE promoter. The cells were seeded at 10,000 per well in 96-well white plates (Cellstar, Greiner; Burlington, MA, United States). The following day cells were incubated with the indicated concentration of inhibitor for 30 min, then the medium was changed, and cells were stimulated with 1 μM ionomycin and 10 nM PMA for 5 h. Next, the cell lysate was harvested to measure luciferase activity with Renilla-Glo Luciferase Assay System (Promega, Wisconsin, United States). All experiments were carried out in triplicates.
# [4] = system: INS-1E and MIN6 cells; experiment: Ki67 proliferation analysis; assay type: cell-based, rat, mouse
# [5] = biological target: T1, DYRK1A; conditions: cited from earlier work
# [6] = system: DYRK1A in MIN6 cell line; experiment: DYRK1A expression by flow cytometry and confocal imaging; assay type: cell-based, mouse
# Description: (§1) The presence of insulin, glucagon, C-peptide, Ki67, and DYRK1A was assessed in MIN6 and INS-1E pancreatic cell lines. Before imaging, cells were seeded onto slides at a density of 1 × 10^5 cells and maintained at 37 °C in 95% atmospheric air and 5% CO2 in a humidified atmosphere for 24 h. After washing with fresh medium, cells were incubated with 5 µM inhibitor solution for 24 h. After this time, the solution was replaced with a culture medium for another 48 h. The cells were fixed. Then after washing and permeabilization, they were incubated with specific antibodies diluted in PBS. Next, the cells were incubated for 10 min with Hoechst33342 (Sigma-Aldrich). After incubation, at 37 °C, in the dark, the cells were washed twice with HBSS (Gibco), the slide was transferred to a microscope table, and the cells were visualized under a Zeiss LSM 880 confocal microscope (Carl Zeiss, Jena, Germany) with a 63× immersion objective. Images were analyzed by Zeiss ZEN Software.
# (§2) The presence of insulin, glucagon, C-peptide, Ki67 and DYRK1A was assessed in MIN6 and INS-1E pancreatic cell lines. Before analysis, cells were seeded onto slides at a density of 1 × 10^5 cells and maintained at 37 °C in 95% atmospheric air and 5% CO2 in a humidified atmosphere for 24 h. After washing with fresh medium, cells were incubated with 5 µM inhibitor solution for 24 h. After this time, the solution was replaced with a culture medium for another 48 h. The cells were then detached from the plate using trypsin. The cells were fixed. Then after washing and permeabilization, they were incubated with specific antibodies diluted in PBS. Cells were analyzed with BDAccuri flow cytometer and calculated using FlowJo software (Ashland, Oregon-based FlowJo LLC, a subsidiary of Becton Dickinson).
# [7] = system: hiPSC-derived pancreatic organoids; experiment: Insulin secretion assay in hiPSC-derived β-cell organoids (ELISA); assay type: cell-based, human; set-up: key to insulin secretion (ELISA): ↑: moderate; ↑↑: most potent
# Description: Differentiation of hiPSC into iPSC-derived β-cell islets was carried out following the protocol established by Pellegrini et al. for pluripotent stem cells with slight modifications. A day before differentiation, 800,000 cells were seeded on coated with Geltrex (Gibco) 12 wells plate in Essential 8 medium (Gibco) with Y-27632 10 µM (Abcam). The following culture media were used for differentiation:
# M1 medium: MCDB131 (Gibco) + 8 mM D-(þ)-Glucose (Sigma) + 1.23 g/L NaHCO3 (Sigma) + 2% BSA (Sigma) + 0.25 mM Vitamin C (Sigma) + 1% Pen/Strep (Lonza, Basel, Switzerland) + 1% L-glutamine (Lonza);
# M2 medium: MCDB131 + 20 mM D-Glucose + 1.754 g/L NaHCO3 + 2% BSA + 0.25 mM Vitamin C + Heparin 10mg/mL (Sigma) + 1% Pen/Strep + 1% L-glutamine. All media were filter-sterilized through a 0.22 µm bottle top filter (Corning, New York, NY, USA). For sequential culture medium changes, small molecules and growth factors were added to the base media immediately before daily exchange. Media switches were as follows: days 0–3: STEMdiff™ Definitive Endoderm Kit ([…], Vancouver, Canada) used following manufacturer instructions; days 4–6: M1 medium + 50 ng/mL KGF (Peprotech, London, UK) + 1:50,000 ITS-X (Invitrogen, Carlsbad, CA, USA); days 7–8: M1 medium + 50 ng/mL KGF + 0.25 µM Sant1 (Sigma) + […] Retinoic acid (RA) (Sigma) + 500 nM PdBU (Millipore, Berlington, MA, United States) + 1:200 ITS-X + 200 nM LDN193189 (only Day 7) (Sigma); days 9–13: M1 medium + 50 ng/mL KGF + 0.25 µM Sant1 + 100 nM RA + 1:200 ITS-X; days 14–18: M2 medium + 0.25 µM Sant1 + 100 nM RA + 1 µM XXI (Millipore) + 10 µM Alk5i II (Selleckchem, Munich, Germany) + 1 µM L-3,30,5-Triiodothyronine (T3) (Sigma) + 20 ng/mL Betacellulin (R&D, Minneapolis, MN, USA) + 1:200 ITS-X.
# (§3) The Insulin ELISA (Ultra Sensitive) was used to quantify insulin levels in control and treated organoids and isolated islets from the mouse pancreas (Crystal Chem, Downers Grove, IL, USA). Islets were homogenized in lysis buffer. Obtained buffer lysates and medium samples (after GSIS) were analyzed for total protein level and subsequently processed following the manufacturer’s protocol.
# [8] = system: INS-1E cells; experiment: MTT cytotoxicity and cell survival assay, INS-1E; assay type: cell-based, rat; conditions: 24 h, 0 to 100 μM
# [9] = system: isolated mouse islets; experiment: Insulin secretion assay in isolated mouse islets (ELISA, immunostaining); assay type: cell-based; set-up: key to insulin secretion (ELISA): ↑: moderate; ↑↑: most potent; conditions: Table 2, Isolated islets
# Description: as §3
# Mice (male, initially 12 weeks old) were sacrificed by cervical vertebral dislocation. Before starting the incision, their bodies were sprayed with 70% EtOH. A hemostatic clamp was placed on both sides of the small intestine, leaving a small pocket to absorb the collagenase solution into the intestine. Next, 3 mL of cold collagenase solution was introduced into the pancreas through the bile duct. The pancreas was removed from the body and placed in a falcon tube containing 2 mL of collagenase solution. The tube was placed in a water bath at 37 °C. It was incubated for 13 min. At the end of this time, the falcon was shaken vigorously. The collagenase was inactivated with FBS. The sample was centrifuged for 30 s (300× g). This step was repeated 3 times. HBSS was then added to the sample and centrifuged two more times at the same speed as before. After the last centrifugation, HBSS was removed and Percoll (1.045 g/mL) (Sigma-Aldrich) was added. The Percoll solution was left to sediment for 5 min. After this time, the islets were collected from the bottom of the falcon. The step was repeated 3 times. Finally, islets were cultured in RPMI-1640 (Pan Biotech) supplemented with 2 mM L-glutamine (Gibco), 10% fetal bovine serum (FBS) and 1% penicillin/streptomycin and the culture medium was changed daily.
# The presence of insulin, C-peptide, glucagon, Pdx-1 and Nkx6.1 was assessed in isolated mouse islets. Islets were fixed in PFA (3.8%) for 30 min, washed with PBS and 0.15% Triton X-100 was added for 1.5 h, then washed again with PBS and samples were transferred to 1% BSA + 0.05% Triton X-100 solution for 3 h. After this time, islets were incubated with primary antibody for 12 h at 4 °C. The secondary antibody was then added for 3 h. Next, the islets were incubated for 10 min with Hoechst33342. After incubation, at 37 °C, in the dark, the samples were washed twice with HBSS, the slide was transferred to a microscope table and the cells were visualized under a Zeiss LSM 880 confocal microscope (Carl Zeiss, Jena, Germany) with a 63× immersion objective. Images were analyzed by Zeiss ZEN Software.
# [10] = system: adult human pancreatic beta cells; set-up: method as in PMID 34335466; conditions: cited from earlier work
# [11] = system: INS-1E and MIN6 cells; experiment: GSIS and insulin, C-peptide, glucagon staining (flow cytometry, confocal); assay type: cell-based, rat, mouse; set-up: key to insulin+ / glucagon+ / C-peptide+: ↑: moderate; ↑↑: most potent
# Description: Cells were cultured in a low glucose medium (5.5 mM) for 24 h. After this medium was changed to lower glucose medium (2 mM) for 2 h and then for high glucose medium (25 mM) for 30 min, media were harvested and/or cells were used for further analysis.
# as §1, §2
# [12] = system: INS-1E and MIN6 cells; experiment: MTT cytotoxicity and cell survival assay, β-cell lines; conditions: Table 2, Cell lines
# [13] = system: mTOR; conditions: cited from earlier work
# [14] = DYRK1A 0.5 µM, ATP 128 µM, DYRKtide 1 mM
compound,measurement,setting,value
"NS(=O)(=O)c1ccc(-c2cnc3[nH]cc(-c4cccnc4)c3c2)cc1 [AC12, 4-(3-(pyridin-3-yl)-1H-pyrrolo[2,3-b]pyridin-5-yl)benzenesulfonamide]",Ki,[1]; [14],100 ± 30 nM
same,Ki,[1]; phosphorylation of substrate peptide,< 200 nM
same,Kd,[2],380 ± 60 nM
"COc1ccc(N)cc1-c1cnc(N)c(C(=O)c2cccnc2)n1 [AC22, (3-azanyl-6-(5-azanyl-2-methoxy-phenyl)pyrazin-2-yl)-pyridin-3-yl-methanone]",Ki,[1]; [14],1600 ± 400 nM
same,NFAT-controlled luciferase activity,[3],induced NFAT-controlled luciferase activity in a dose-dependent manner
same,Kd,[2],2600 ± 400 nM
same,induction of β-cell proliferation (Ki67 labeling of insulin-labeled cells),"[4]; 5 μM, vs untreated cells",most potent in inducing β-cell proliferation
same,IC50,"[5]; DYRK1A, Figure 1, ref Czarna et al. [44]",> 6 µM
same,Ki,"[5]; Table S1, Cook assay, data previously reported, ref 1 (Czarna et al. 2018)",> 2800 nM
"CN1C(=O)[C@H]2CCC[C@H]2N(C2CCCC2)c2nc(Nc3ccc(C(N)=O)cc3)ncc21 [AC23, 4-(((6aS,9aR)-10-cyclopentyl-5-methyl-6-oxo-5,6,6a,7,8,9,9a,10-octahydrocyclopenta[e]pyrimido[5,4-b][1, 4]diazepin-2-yl)amino)benzamide]",Ki,[1]; [14],1200 ± 400 nM
same,NFAT-controlled luciferase activity,[3],induced NFAT-controlled luciferase activity in a dose-dependent manner
same,Kd,[2],12900 ± 2600 nM
"C=CC(=O)Nc1ccc(C(=O)c2sc(Nc3ccc(N4CCN(C)CC4)cc3OC)nc2N)cc1 [AC25, N-(4-((4-azanyl-2-((2-methoxy-4-(4-methylpiperazin-1-yl)phenyl)amino)-1,3-thiazol-5-yl)carbonyl)phenyl)propenamide]",Ki,[1]; [14],1000 ± 300 nM
same,NFAT-controlled luciferase activity,[3],did not promote NFAT-activity
same,Kd,[2],1100 ± 600 nM
C=CC(=O)Nc1cccc(C(=O)c2sc(Nc3ccc(N4CCN(C)CC4)cc3)nc2N)c1 [AC28],Ki,[1]; [14],3000 ± 1000 nM
same,NFAT-controlled luciferase activity,[3],did not promote NFAT-activity
same,Kd,[2],27000 ± 17000 nM
"COc1ccc2c(c1)[nH]c1c(C)nccc12 [Harmine, reference compound]","DYRK1A (fluorescence-positive cells, flow cytometry)","[6]; MIN6, 24 h with inhibitor, control 74%",27.7%
same,DYRK1A signal in confocal imaging,"[6]; MIN6, vs untreated control",reduced
same,insulin release,"[7]; GSIS, compared with untreated control cells",markedly increased insulin release
same,insulin secretion (ELISA),"[7]; Table 2, hiPSC",↑↑
same,NFAT-controlled luciferase activity,[3],induced NFAT-controlled luciferase activity in a dose-dependent manner
same,effect on viability of INS-1E cells,[8],did not show adverse effects
same,insulin secretion (ELISA),[9],↑
same,increase in proliferation,[10],2–4%
same,insulin/C-peptide secretion,"[11]; GSIS, compound alone",enhanced insulin secretion and increases C-peptide levels
same,C-peptide+,"[11]; Table 2, Cell lines",↑
same,glucagon+,"[11]; Table 2, Cell lines",↑↑
same,insulin+,"[11]; Table 2, Cell lines",↑
same,toxicity,[12],no
"Cc1cccc(-c2n[nH]cc2-c2ccc3ncccc3n2)n1 [RepSox, 2-(3-(6-Methyl-2-pyridinyl)-1H-pyrazol-4-yl)-1,5-naphthyridine, reference compound]",effect on cell proliferation,[4]; TGF-β inhibitor alone,did not affect cell proliferation
"Nc1ccc(-c2ccc3ncc4ccc(=O)n(-c5cccc(C(F)(F)F)c5)c4c3c2)cn1 [Torin2, 9-(6-Aminopyridin-3-yl)-1-(3-(trifluoromethyl)phenyl) benzo [h][1, 6] naphthyridin-2 (1 H)-one, reference compound]",NFAT-controlled luciferase activity,[3],did not promote NFAT-activity
same,potency towards mTOR compared to AC27,[13],40 times
